# Data as given in a melting point compilation (Tetko et al.; mined from patent text by program, amines drawn as free bases though some values may be those of a salt).
row,melting point,SMILES
1,170 to 172 °C,CN1CCN(c2cc(Cl)c3c(c2)N(Cc2ccccc2)C(=O)N(Cc2cccc(O)c2)S3(=O)=O)CC1
2,257 to 259 °C,Oc1cccc2c1nc(-c1c(F)cccc1F)n2Cc1c(F)cccc1F
3,298 to 300 °C,O=C1CCC(N2Cc3cc(CNC(=O)Nc4cccc(Oc5ccccn5)c4)ccc3C2=O)C(=O)N1 (stereo unspecified)
4,73 to 74 °C,Cc1noc(CC(=O)Oc2ccc(Br)cc2)n1
5,146 to 147 °C,CN1CCC(=O)C(C2c3ccccc3CCc3ccccc32)C1 (stereo unspecified)
6,182 to 185 °C,NC(CC(c1ccccc1)c1ccccc1)(C(=O)O)C1CC(C(=O)O)(C(=O)O)C1 (stereo unspecified)
7,131 to 136 °C,O=C(Nc1cc(Cl)c(F)cc1-c1ccccc1)c1cccnc1Cl
8,314 to 316 °C,NS(=O)(=O)c1cc2[nH]c(-c3ccccc3)nc2cc1Cl
9,114 to 116 °C,COc1ccc(CCN2CCC(C(=O)c3csc4ccccc34)CC2)cc1
10,86 to 87 °C,O=[N+]([O-])c1ccc(OCCOc2ccccc2)cc1
11,110 to 113 °C,CCC(CO)(CO)Nc1ncc2cc(Oc3ccc(F)cc3F)ccc2n1
12,219 to 221 °C,Cc1nc(CC2CCc3c(C)c4ccccc4n3C2=O)c(C)[nH]1 (stereo unspecified)
13,82 to 84 °C,O=C(Nc1ccc(F)cc1F)Oc1ccccc1
14,146 °C,COc1ccc(C=Nc2ccccc2SCc2ncon2)cc1OC
15,73 to 75 °C,CCS(=O)(=O)N(Cc1ccccc1)Cc1ccc2[nH]cc(CCCN3CCN(c4ncncc4OC)CC3)c2c1
16,87 to 89 °C,Cc1ccc(S(=O)(=O)OCC2CCc3cc(Br)ccc3C2)cc1 (stereo unspecified)
17,100 °C,CS(=O)(=O)N1CCN([C@@H](CNS(=O)(=O)c2ccc(OCc3ccnc(-c4ccccc4)c3)cc2)C(=O)NO)CC1
18,54 °C,Cc1ccccc1CO[C@H]1COCO[C@H]1C (relative stereo)
19,208 to 210 °C,COc1ccc(Cn2c(=O)ccc3cnc(Cl)cc32)cc1Cl
20,179 to 181 °C,Cc1cc(-c2ccccc2)n2nc(Cl)nc2n1
21,211 to 212 °C,NC(=O)CC[C@H](Nc1ccc(O)cc1)C(=O)O
22,181 to 184 °C,Nc1cc(Oc2ccc(S(=O)(=O)c3ccc(OCc4ccccc4)c(Cl)c3)cc2Cl)c([N+](=O)[O-])cc1O
23,195 to 196 °C,C#Cc1cccc(-n2c(=O)oc3ccc(-c4ccc(F)cc4F)cc3c2=O)c1
24,137 to 139 °C,COC(=O)c1ccnc(NC(=O)C(CSC(C)=O)Cc2ccccc2)c1 (stereo unspecified)
25,66 to 68 °C,CC(=O)N(c1ccccc1)c1[nH]c2ccccc2c1Sc1ccccc1
26,148 to 149 °C,CC(=O)N1CCN(c2ccn3nc(-c4ccccc4)c(-c4ccc(=O)n(C(C)C)n4)c3c2)CC1
27,116 to 118 °C,O=C(O)[C@H](Cc1cccc(C(F)(F)F)c1)[C@@H](O)c1ccc(F)cc1 (racemic)
28,86 to 88 °C,CC(C)(C)OC(=O)CC1(C(=O)OCc2ccccc2)C(=O)N(Cc2ccc(Cl)c(Cl)c2)C(=O)c2cccn21 (stereo unspecified)

row,melting point,SMILES
1,> 300 °C,N=C(N)c1cccc(Cn2ccc3ncn(Cc4ccc5ccc(C(=N)N)cc5c4)c3c2=O)c1
2,184 to 196 °C,Nc1cccc(-c2ccc(-c3cccc(CN4CC5C(N)C5C4)c3)cc2)n1 (stereo unspecified)
3,212 to 213 °C,Cc1nc(-c2cn(Cc3ccccc3)nn2)sc1C(=O)NCc1cccnc1
4,67 to 68 °C,CC(C)n1nc(CC(=O)c2ccc(F)cc2)ccc1=O
5,235 to 237 °C,Cc1cc(-c2nnc3c4ccccc4c(OCn4cccn4)nn23)no1
6,225 to 227 °C,N#Cc1ccc2cc(-c3cccc(O)c3)oc2c1
7,215 to 217 °C,Cc1ccc(-c2coc3cc(O)cc(O)c3c2=O)cc1
8,116 to 118 °C,Cc1ccc(S(=O)(=O)n2cc(CCN(Cc3ccccc3)Cc3ccccc3)c3ccccc32)cc1
9,144 to 145 °C,CCOC(=O)CNC(=O)Cn1c(-c2cccc(Cl)c2)nc2cccnc21
10,272 to 274 °C,COc1c(NC(=O)COc2ccccc2)c(C(N)=O)c(OC)c(NC(=O)COc2ccccc2)c1C(N)=O
11,100 to 104 °C,CCC1CCCCN1C(=O)C=Cc1c(-c2cccc(Cl)c2)nn2ccccc12 (stereo unspecified)
12,117 to 118 °C,COc1ccccc1N1CCN(CCNc2ccccc2[N+](=O)[O-])CC1
13,145 to 147 °C,COc1ccc2c(c1)OCC1CN(C(=O)c3cccnc3)N=C21 (stereo unspecified)
14,131 to 135 °C,COc1cc(C(C)=O)ccc1OCCN1CCC(C(O)(c2ccc(F)cc2)c2ccc(F)cc2)CC1
15,163 to 165 °C,CCOC(=O)C1=C(O)c2ccc3ccccc3c2S(=O)(=O)N1C
16,> 300 °C,Nc1ccc2c(=O)[nH]c(=O)n(-c3ccccc3)c2n1
17,260 °C,CCCc1c(Cc2ccc(-c3ccccc3-c3nnn[nH]3)cc2)c(O)nc2ccnn12
18,241 to 246 °C,Oc1cc2c3ccc(O)c(O)c3n(Cc3ccccc3)c2cc1O
19,92 to 94 °C,CCCc1nnc2c(N(CC)CC)nc3ccccc3n12
20,98 °C,CC(C)=CCC(C)(C)C(=O)/C=C/[C@@H]1[C@H]2CC(=O)O[C@H]2C[C@H]1OC(=O)c1ccccc1
21,138 to 141 °C,CC1(c2ccc(CNC(=O)CCl)cc2)Cc2cc(OCC(=O)O)c(Cl)c(Cl)c2C1=O (stereo unspecified)
22,154 to 155 °C,OCCCSc1csc2ccccc12
23,128 to 130 °C,COc1ccc2ccnc(N)c2c1
24,144 to 145 °C,COc1ccc(-c2nn(Cc3ccccc3)c(=O)c3ccccc23)c(OC)c1OC
25,192 to 194 °C,CC(=O)n1ccc(-c2ccc(C(=O)N3Cc4cccn4Cc4ccccc43)cc2)n1
26,101 to 103 °C,CC(C)(C)CC(C)(C)c1ccc(O)c(-n2nc3ccccc3n2)c1
27,119 to 120 °C,CCc1nc(-c2ccco2)c2ncn(Cc3ccc(OC)cc3)c2n1

# Further lines, the compound ahead of its results:
row,SMILES,melting point
1,COC(=O)CSCC(NC(=O)OC(C)(C)C)c1ccc(F)cc1 (stereo unspecified),61 to 62 °C
2,N#CC1(C2(O)CCCCC2)Cc2cc3occc3cc21 (stereo unspecified),154 to 158 °C
3,COc1ccc(C2(C#N)CCC(=NO)CC2)cc1OCC1CC1 (stereo unspecified),75 to 77 °C
4,NC(=S)c1cn(COC(CO)CO)c2ncnc(N)c12,180 to 181 °C
5,NC(=NO)c1c(F)cccc1C(F)(F)F,155 to 157 °C
6,CCC#CC(C)(C)NC(=O)C(CC)Oc1cncc(Br)c1 (stereo unspecified),90 to 92 °C
7,Oc1ccc2nc(SCCC(F)C(F)(F)Br)oc2c1 (stereo unspecified),64.6 to 67.6 °C
8,CCc1cc(N(Cc2ccc(-c3ccccc3-c3nnn(C(c4ccccc4)(c4ccccc4)c4ccccc4)n3)cc2)C(C)=O)cc(CC)n1,98 to 102 °C
9,C=Cc1c(C(=O)OC)nc(Cl)c(Cl)c1N,96 to 97 °C
10,CNC(=O)NC1(C)CCCc2sccc21 (stereo unspecified),135 to 145 °C
11,Cc1cc([C@@H]2C[C@H]2c2nc3ccccc3n2C)cc(-n2nc(C)nc2C)n1 (relative stereo),157 to 159 °C
12,Brc1ccc(C2(Cn3cncn3)OCCO2)cc1,136 °C
13,O=c1[nH]c(=S)n2c3c1cnn3C(c1cccc(F)c1)=CC2,298 to 300 °C
14,CCOC(=O)[C@H](C)N[P@@]1(=O)OC[C@H]2O[C@@H](n3cnc4c(OCC)nc(N)nc43)[C@](C)(F)[C@@H]2O1,195 to 197 °C
15,CC1(C)NC(=O)N(c2ccc(I)c(C(F)(F)F)c2)C1=O,164 to 165 °C
16,Cc1noc(NS(=O)(=O)c2cccc(F)c2)c1Br,125 to 128 °C
17,Clc1c2c(nc3ccccc13)CCCNC2,127 °C
18,Cc1[nH]cnc1-c1cc(C(C)(C)C)c(O)c(C(C)(C)C)c1,207 to 209 °C
19,CCc1nc2c(C(F)(F)F)cccc2c(O)c1C(=O)O,174 °C
20,CC(C)(CCCSCCNS(=O)(=O)c1ccc(Cl)cc1)C(=O)O,107 to 109 °C
21,CCOC(=O)c1[nH]c(C)c(C)c1CC(C)C,109 to 111 °C
22,O=C(c1ccc(F)cc1)c1cc(Cl)nnc1Cl,71.1 to 72.6 °C
23,OCC(O)CNCC(O)C(O)C(O)C(O)CO (stereo unspecified),133 to 134 °C

row,SMILES,melting point
1,CCCCC(CC)c1nc2cc(Cl)c(C#N)c(C)n2n1 (stereo unspecified),95 to 96 °C
2,Fc1cc(OC23CC4CC(CC(C4)C2)C3)ccc1N1CCCC1,99 to 106 °C
3,COC(=O)C[C@@H]1Nc2ccc(NC(=O)OC(C)(C)C)cc2CNC1=O,167 to 169 °C
4,COc1cccc2c1CCC(O)(C(C)=O)C2 (stereo unspecified),63 to 63.5 °C
5,CC(=O)NCC1CC1c1c(C)ccc2nn(C)cc12 (stereo unspecified),139 to 140 °C
6,COC(=O)C1CCC2C3CCC4CC(O)C(OC)CC4(C)C3C(=O)CC12C (stereo unspecified),170 to 182 °C
7,CCN(CC)C(=O)NC1CC2c3cccc4[nH]cc(c34)CC2N(C)C1 (stereo unspecified),171 to 173 °C
8,NC(=O)OCC(OC(N)=O)c1ccccc1Cl (stereo unspecified),167 to 169 °C
9,OCCC1(c2ccc(Cl)c(Cl)c2)CNCCO1 (stereo unspecified),90 to 91 °C
10,CCCCCCCCCCCCCCCCOCC(CN)COC (stereo unspecified),49 to 51 °C
11,CCNS(=O)(=O)c1ccc(N)c(C(=O)N2CCN(C)CC2)c1,175 to 177 °C
12,CC(C)Nc1nc(NC(C)C)nc(OC(F)F)n1,81 to 82 °C
13,COC(=O)C=Cc1ccc(O)cc1,139 to 140 °C
14,CS(=O)(=O)OC(c1ccc(C(O)(C(F)(F)F)C(F)(F)F)cc1)(C(F)(F)F)C(F)(F)F,160 °C
15,CSCCCN1C(=O)C(NC(=O)c2cc3ccccc3[nH]2)N=C(c2ccccc2)c2ccccc21 (racemic),216 to 221 °C
16,Cn1cc(Cl)cnc1=O,210 °C
17,Nc1c(SC(F)(F)F)c(C(=O)NC2CC2)nn1-c1c(Cl)cc(C(F)(F)F)cc1Cl,193 °C
18,O=C1Nc2ccc(Oc3cc(F)c(C(F)(F)F)c(Cl)c3)cc2C12CC2,168 to 170 °C
19,CNC(=O)C[C@@H]1N=C(c2ccc(Cl)cc2)c2c(sc(C)c2C)-n2c(C)nnc21,143 to 145 °C
20,Cc1nc(SCC(N)=O)nc(C)c1Br,175 to 177 °C
21,O=C1Nc2cc(Cl)ccc2Sc2cscc21,267 to 269 °C
22,Cc1cn(CC(=O)N(CCNC(=O)OC(C)(C)C)CC(=O)O)c(=O)[nH]c1=O,142 to 147 °C
23,CS(=O)(=O)N(CCCl)N(C(=O)NCCCl)S(C)(=O)=O,96 to 97.5 °C
